Ends that are not written are not given here.
Assays:
S. aureus ATCC 29213 = assay: MIC, broth dilution; assay type: cell-based, Staphylococcus aureus; conditions: Table 5; STIP3 variants, highest concentration 100 μg/mL
Outline: (§1)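 Peptides (95% purity) were serially diluted 2-fold and mixed with bacteria diluted to OD 6×10^−4 in cation-adjusted Mueller Hinton broth. Standing cultures were incubated overnight at 37° C. MIC was the lowest peptide concentration with no observed growth.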

[1] = tested on: S. aureus ATCC 33592 (MRSA SCCmec type III); assay: MIC, broth dilution; assay type: cell-based, Staphylococcus aureus; conditions: Table 5; STIP3 variants, highest concentration 100 μg/mL
Outline: as §1

[2] = tested on: S. aureus ATCC BAA-1683 (MRSA SCCmec type IV); assay: MIC, broth dilution; assay type: cell-based, Staphylococcus aureus; conditions: Table 5; STIP3 variants, highest concentration 100 μg/mL
Outline: as §1

[3] = tested on: S. aureus ATCC BAA-2094 (MRSA SCCmec type V); assay: MIC, broth dilution; assay type: cell-based, Staphylococcus aureus; conditions: Table 5; STIP3 variants, highest concentration 100 μg/mL
Outline: as §1

[4] = tested on: S. aureus ATCC BAA-2313 (MRSA SCCmec type XI); assay: MIC, broth dilution; assay type: cell-based, Staphylococcus aureus; conditions: Table 5; STIP3 variants, highest concentration 100 μg/mL
Outline: as §1

[5] = tested on: S. aureus ATCC BAA-41 (MRSA SCCmec type II); assay: MIC, broth dilution; assay type: cell-based, Staphylococcus aureus; conditions: Table 5; STIP3 variants, highest concentration 100 μg/mL
Outline: as §1

[6] = tested on: S. aureus ATCC BAA-42 (MRSA SCCmec type VI); assay: MIC, broth dilution; assay type: cell-based, Staphylococcus aureus; conditions: Table 5; STIP3 variants, highest concentration 100 μg/mL
Outline: as §1

[7] = tested on: S. aureus ATCC BAA-44 (MRSA SCCmec type I); assay: MIC, broth dilution; assay type: cell-based, Staphylococcus aureus; conditions: Table 5; STIP3 variants, highest concentration 100 μg/mL
Outline: as §1

[8] = tested on: Mannheimia haemolytica ATCC 33393; assay: MIC, broth dilution; assay type: cell-based; conditions: Table 11; highest concentration 25 μg/mL
Outline: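 Peptides (95% purity) in 2-fold dilution series were mixed with M. haemolytica diluted to OD 6×10^−4 in cation-adjusted Mueller Hinton broth and incubated standing overnight at 37 °C. MIC was the lowest concentration with no visible growth.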

C. albicans MYA-2876 = assay: MIC, YPD broth; assay type: cell-based, Candida albicans; conditions: Table 8
Outline: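 Minimum inhibitory concentrations against Candida albicans were determined in YPD broth (10 g/L yeast extract, 20 g/L peptone, 20 g/L dextrose) using peptides of 95% purity. A 180 μl volume of diluted yeast was combined with 20 μl of peptide in a 2-fold dilution series in 96-well plates, with sterile water as control, then incubated standing overnight at 37° C.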

C. albicans Y537 = assay: MIC, YPD broth; assay type: cell-based, Candida albicans; conditions: Table 8
[9] = tested on: Candida duobushaemulonii AR 391; assay: MIC, YPD broth, CDC and FDA AR Candida isolate panel; assay type: cell-based
Outline: (§2)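 Peptide purity was 95%. Doubling dilutions were tested against yeast set at an optical density of […], with overnight standing incubation at 37° C and a sterile-water control.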

[10] = tested on: Candida duobushaemulonii AR 392; assay: as above; assay type: cell-based
Outline: as §2

[11] = tested on: Candida duobushaemulonii AR 394; assay: as above; assay type: cell-based
Outline: as §2

[12] = tested on: Candida haemulonii AR 393; assay: as above; assay type: cell-based
Outline: as §2

[13] = tested on: Candida haemulonii AR 395; assay: as above; assay type: cell-based; conditions: Table 9 below the line: only 200 or 100 μg/mL tested; values reported as 100 are ≤100 μg/mL
Outline: as §2

Candida krusei AR 397 = assay: as above; assay type: cell-based
Outline: as §2

[14] = tested on: Candida lusitaniae AR 398; assay: as above; assay type: cell-based
Outline: as §2

Kodamae ohmeri AR 396 = assay: as above; assay type: cell-based
Outline: as §2

[15] = tested on: Saccharomyces cerevisiae AR 399; assay: as above; assay type: cell-based
Outline: as §2

[16] = tested on: Saccharomyces cerevisiae AR 400; assay: as above; assay type: cell-based
Outline: as §2

[17] = Table 9 below the line: only 200 or 100 μg/mL tested, values reported as 100 are ≤100 μg/mL
[18] = Table 9 top part: titrations from 1.56 to 100 μg/mL

| Substance | MIC S. aureus ATCC 29213 (S. aureus ATCC 29213) | MIC S. aureus ATCC 33592 (III) [1] | MIC S. aureus ATCC BAA 1683 (IV) [2] | MIC S. aureus ATCC BAA 2094 (V) [3] | MIC S. aureus ATCC BAA 2313 (XI) [4] | MIC S. aureus ATCC BAA 41 (II) [5] | MIC S. aureus ATCC BAA 42 (VI) [6] | MIC S. aureus ATCC BAA 44 (I) [7] | MIC (μg/mL) M. haemolytica [8] | MIC C. albicans MYA-2876 (C. albicans MYA-2876) | MIC C. albicans Y537 (C. albicans Y537) | MIC (μg/mL) Candida duobushaemulonii AR 391 [9, 17] | MIC (μg/mL) Candida duobushaemulonii AR 392 [10, 17] | MIC (μg/mL) Candida duobushaemulonii AR 394 [11, 17] | MIC (μg/mL) Candida haemulonii AR 393 [12, 17] | MIC (μg/mL) Candida duobushaemulonii AR 392 [10, 18] | MIC (μg/mL) Candida krusei AR 397 (Candida krusei AR 397; [18]) | MIC (μg/mL) Candida lusitaniae AR 398 [14, 18] | MIC (μg/mL) Kodamae ohmeri AR 396 (Kodamae ohmeri AR 396; [18]) | MIC (μg/mL) Saccharomyces cerevisiae AR 400 [16, 18] | also measured |
| --- | --- | --- | --- | --- | --- | --- | --- | --- | --- | --- | --- | --- | --- | --- | --- | --- | --- | --- | --- | --- | --- |
| TVKKLVKWILKTVKKFA [STIP3-18, TVKKLVKWILKTVKKFA] | 100 µg/mL | 100 µg/mL | > (no inhibition was observed at the highest concentration of peptide tested: 100 μg/mL for the STIP3 variants) | 100 µg/mL | > (no inhibition was observed at the highest concentration of peptide tested: 100 μg/mL for the STIP3 variants) | 100 µg/mL | > (no inhibition was observed at the highest concentration of peptide tested: 100 μg/mL for the STIP3 variants) | 100 µg/mL | 6.25 µg/mL | 50 µg/mL | > (> symbol indicates that no inhibition was observed at the highest concentration of peptide tested: 100 μg/mL) | ≤ 100 µg/mL | ≤ 100 µg/mL | ≤ 100 µg/mL | > (values below the line were determined using two concentrations of peptide 200 or 100 μg/mL) |  |  |  |  |  | MIC (μg/mL) Candida haemulonii AR 395 [13]: > (values below the line were determined using two concentrations of peptide 200 or 100 μg/mL); MIC (μg/mL) Candida krusei AR 397 (Candida krusei AR 397; [17]): ≤ 100 µg/mL; MIC (μg/mL) Candida lusitaniae AR 398 [14, 17]: ≤ 100 µg/mL; MIC (μg/mL) Kodamae ohmeri AR 396 (Kodamae ohmeri AR 396; [17]): > (values below the line were determined using two concentrations of peptide 200 or 100 μg/mL); MIC (μg/mL) Saccharomyces cerevisiae AR 399 [15, 17]: ≤ 100 µg/mL; MIC (μg/mL) Saccharomyces cerevisiae AR 400 [16, 17]: ≤ 100 µg/mL |
| TVKALVKWILKTVAKFW-NH2 [STIP3-31, TVKALVKWILKTVAKFW-NH2] | 25 µg/mL | 25 µg/mL | 25 µg/mL | 25 µg/mL | 25 µg/mL | 25 µg/mL | 50 µg/mL | 25 µg/mL | 6.25 µg/mL | > (> symbol indicates that no inhibition was observed at the highest concentration of peptide tested: 100 μg/mL) | > (> symbol indicates that no inhibition was observed at the highest concentration of peptide tested: 100 μg/mL) | > (values below the line were determined using two concentrations of peptide 200 or 100 μg/mL) | > (values below the line were determined using two concentrations of peptide 200 or 100 μg/mL) | > (values below the line were determined using two concentrations of peptide 200 or 100 μg/mL) | > (values below the line were determined using two concentrations of peptide 200 or 100 μg/mL) |  |  |  |  |  | MIC (μg/mL) Candida krusei AR 397 (Candida krusei AR 397; [17]): > (values below the line were determined using two concentrations of peptide 200 or 100 μg/mL); MIC (μg/mL) Candida lusitaniae AR 398 [14, 17]: > (values below the line were determined using two concentrations of peptide 200 or 100 μg/mL); MIC (μg/mL) Kodamae ohmeri AR 396 (Kodamae ohmeri AR 396; [17]): > (values below the line were determined using two concentrations of peptide 200 or 100 μg/mL); MIC (μg/mL) Saccharomyces cerevisiae AR 399 [15, 17]: > (values below the line were determined using two concentrations of peptide 200 or 100 μg/mL); MIC (μg/mL) Saccharomyces cerevisiae AR 400 [16, 17]: > (values below the line were determined using two concentrations of peptide 200 or 100 μg/mL) |
| TVKGLVKWILNVVKKFA-NH2 [STIP3-30, TVKGLVKWILNVVKKFA-NH2] | 12.5 µg/mL | 12.5 µg/mL | 12.5 µg/mL | 25 µg/mL | 25 µg/mL | 25 µg/mL | 25 µg/mL | 12.5 µg/mL | 12.5 µg/mL | 25 µg/mL | 50 µg/mL |  |  |  |  | 25 µg/mL | 12.5 µg/mL | 6.25 µg/mL | 25 µg/mL | 12.5 µg/mL | MIC (μg/mL) Candida duobushaemulonii AR 391 [9, 18]: 12.5 µg/mL; MIC (μg/mL) Candida duobushaemulonii AR 394 [11, 18]: 25 µg/mL; MIC (μg/mL) Candida haemulonii AR 393 [12, 18]: 100 µg/mL; MIC (μg/mL) Saccharomyces cerevisiae AR 399 [15, 18]: 25 µg/mL |
| TVKALVKWILKTVAKFA [STIP3-19, TVKALVKWILKTVAKFA] | 50 µg/mL | 25 µg/mL | 25 µg/mL | 25 µg/mL | 25 µg/mL | 50 µg/mL | 50 µg/mL | 25 µg/mL | 12.5 µg/mL | > (> symbol indicates that no inhibition was observed at the highest concentration of peptide tested: 100 μg/mL) | > (> symbol indicates that no inhibition was observed at the highest concentration of peptide tested: 100 μg/mL) |  |  |  |  | 100 µg/mL | 100 µg/mL | 50 µg/mL | > (MIC values reported at the top of the table (above the double line) are based on titrations from 1.56 to 100 μg/mL) | 50 µg/mL | MIC (μg/mL) Candida duobushaemulonii AR 391 [9, 18]: 50 µg/mL; MIC (μg/mL) Candida duobushaemulonii AR 394 [11, 18]: 100 µg/mL; MIC (μg/mL) Saccharomyces cerevisiae AR 399 [15, 18]: 100 µg/mL |
| TVKALVKWILKTVAKFW [STIP3-21, TVKALVKWILKTVAKFW] | 25 µg/mL | 25 µg/mL | 12.5 µg/mL | 12.5 µg/mL | 12.5 µg/mL | 25 µg/mL | 25 µg/mL | 25 µg/mL | 12.5 µg/mL | > (> symbol indicates that no inhibition was observed at the highest concentration of peptide tested: 100 μg/mL) | > (> symbol indicates that no inhibition was observed at the highest concentration of peptide tested: 100 μg/mL) |  |  |  |  | > (MIC values reported at the top of the table (above the double line) are based on titrations from 1.56 to 100 μg/mL) | 100 µg/mL | 50 µg/mL | > (MIC values reported at the top of the table (above the double line) are based on titrations from 1.56 to 100 μg/mL) | 200 µg/mL |  |

— US12370235B2, “Synthetic, non-natural antimicrobial peptides inspired by Staphylococcus auricularis delta toxin” (University of Saskatchewan, priority 2021, dated 2025)
